# Measured values reported in patent EP3977982A1 (Acerus Biopharma Inc., priority 2011, dated 2012).
# Like-named read-outs stand apart in the source and are kept apart here.
# Assays:
# [1] = nasal, cited from earlier work
# [2] = drug substance; cited from earlier work
# [3] = Solubility of testosterone in water, solvents, oils and vehicles
# [4] = pKa assessment of testosterone; conditions: inferred from molecular structure, no protonatable groups
# [5] = target: T1, sex hormone binding globulin (SHBG) (Homo sapiens, UniProt P04278); conditions: cited from earlier work
# T1 sequence (P04278 30-402): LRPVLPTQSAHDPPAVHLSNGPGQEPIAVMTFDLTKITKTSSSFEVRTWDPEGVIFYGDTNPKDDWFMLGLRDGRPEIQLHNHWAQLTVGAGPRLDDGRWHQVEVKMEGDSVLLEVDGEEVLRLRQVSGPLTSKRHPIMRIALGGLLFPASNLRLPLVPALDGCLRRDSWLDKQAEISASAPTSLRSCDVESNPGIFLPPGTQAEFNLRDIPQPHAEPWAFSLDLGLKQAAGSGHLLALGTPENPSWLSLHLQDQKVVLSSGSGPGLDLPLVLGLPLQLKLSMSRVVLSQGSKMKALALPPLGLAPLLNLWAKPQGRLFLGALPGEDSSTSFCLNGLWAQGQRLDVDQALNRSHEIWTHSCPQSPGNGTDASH
# [6] = formulated in ethanol/propylene glycol/water; cited from earlier work
# [7] = nasal, dissolved in polyethylene glycol (200 mg/ml); cited from earlier work
# [8] = cited from earlier work
smiles,measurement,setting,value
"CN(C)CC(=O)O[C@H]1CC[C@H]2[C@@H]3CCC4=CC(=O)CC[C@]4(C)[C@H]3CC[C@]12C [testosterone 17β-N,N-dimethylglycinate]",time to peak plasma concentrations,[1]; 25 mg dose,≤ 12 min
same,time to peak plasma concentrations,[1]; 50 mg dose,≤ 20 min
same,elimination half-lives,[1],about 55 min
"C[C@]12CC[C@H]3[C@@H](CCC4=CC(=O)CC[C@@]43C)[C@@H]1CC[C@@H]2O [testosterone, Testosterone]",retest period,[2],5 years
same,testosterone levels in the gel,[3]; DMI used in conjunction with the other excipients,≥ 8.0%
same,testosterone dissolved by solvent alone,[3]; Diethyleneglycol ethyl ether alone,more than 10%
same,testosterone dissolved by solvent,[3]; Dimethyl isosorbide (DMI),more than 12%
same,solubility,[3]; acetone and isopropanol,soluble
same,amount an aqueous solution can contain,[3]; aqueous solution,0.002 mg per 100 µL
same,solubility of testosterone in oils,[3]; castor oil,up to 4%
same,amount a castor oil solution can contain,[3]; castor oil solution,up to 4.5 mg per 100 µL
same,solubility of testosterone in oils,[3]; corn oil,0.5%
same,solubility of testosterone in oils,[3]; cottonseed oil,0.7%
same,solubility of testosterone in oils,[3]; isopropylmyristate,0.8%
same,solubility,[3]; methanol and ethanol,freely soluble
same,solubility,[3]; n-heptane,insoluble
same,Testosterone solubility in the oil based gel,[3]; oil based TBS-1A gel (so in the source),about 4.5%
same,solubility of testosterone in oils,[3]; peanut oil,0.5%
same,solubility of testosterone in oils,[3]; soybean oil,0.6%
same,pKa,[4],no pKa value in the range 1-14
same,testosterone remaining unbound (free),[5]; in men,about 2%
same,testosterone remaining unbound (free),[5]; in women,up to 3%
CC(=O)[C@H]1CC[C@H]2[C@@H]3CCC4=CC(=O)CC[C@]4(C)[C@H]3CC[C@]12C [progesterone],Tmax,[6],5.5 min
same,Tmax,[7],30 min
same,duration of serum level,[7],at least 8 hours
same,serum level decrease,[8]; nasal powder mixtures progesterone/cyclodextrin,≤ 20 min
same,Tmax,"[8]; nasal powder mixtures, co-ground and co-lyophilized progesterone/cyclodextrin",2 to 5 min
